Measurements: patent publication US11932658B2 (BRISTOL-MYERS SQUIBB COMPANY, priority 2016, dated 2024)
pIC50: −log10 of the molar value.

Target: T1, PAR4 (Homo sapiens, UniProt Q96RI0)
T1 construct: expressed in transfected cells; host or cells: HEK293 PAR4 Clone 1.2A (BMS Arctic ID 383940)
T1 sequence (Q96RI0 18-385): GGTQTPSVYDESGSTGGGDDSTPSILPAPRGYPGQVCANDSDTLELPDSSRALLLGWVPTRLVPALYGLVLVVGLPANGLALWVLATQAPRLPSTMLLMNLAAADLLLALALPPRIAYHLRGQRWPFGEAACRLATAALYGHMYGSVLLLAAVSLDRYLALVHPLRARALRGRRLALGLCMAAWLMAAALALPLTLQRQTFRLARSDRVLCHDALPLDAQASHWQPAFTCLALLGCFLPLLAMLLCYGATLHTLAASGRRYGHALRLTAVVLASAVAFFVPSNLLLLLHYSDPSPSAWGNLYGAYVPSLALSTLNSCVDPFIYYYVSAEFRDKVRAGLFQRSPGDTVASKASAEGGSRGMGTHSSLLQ
Test: PAR4 FLIPR assay (antagonism of agonist peptide-induced calcium mobilization)
Assay type: cell-based
Method in brief: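 Antagonism was taken as block of calcium mobilization evoked by the agonist peptide H-Ala-Phe(4-F)-Pro-Gly-Trp-Leu-Val-Lys-Asn-[…]-NH2, added after 30 min room-temperature compound preincubation in dye-loaded PAR4-transfected HEK293 cells (endogenous PAR1). Fluorescence was read on FDSS, with compound addition alone used as the agonist counter-screen; values come from 11-point concentration-response curves.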

pIC50	SMILES
8.70	COc1ccc(NC(=O)OCC2COc3c(cc(C)c4nc(-c5cc(CO)cc6nc(OC)cnc56)sc34)O2)cn1 (stereo not shown) [Example 87, (2-(7-(hydroxymethyl)-2-methoxyquinoxalin-5-yl)-4-methyl-7,8-dihydro-[1,4]dioxino[2′,3′:3,4]benzo[1,2-d]thiazol-7-yl)methyl (6-methoxypyridin-3-yl)carbamate]
8.36	COc1ccc(NC(=O)OCC2COc3c(cc(C)c4nc(-c5cc(C(C)O)cc6nc(OC)cnc56)sc34)O2)cn1 (stereo not shown) [Example 88, (2-(7-(1-hydroxyethyl)-2-methoxyquinoxalin-5-yl)-4-methyl-7,8-dihydro-[1,4]dioxino[2′,3′:3,4]benzo[1,2-d]thiazol-7-yl)methyl (6-methoxypyridin-3-yl)carbamate]
7.70	C=Cc1cc(-c2nc3c(C)cc4c(c3s2)OCC(COC(=O)Nc2cccnc2)O4)c2ncc(OC)nc2c1 (stereo not shown) [Example 89, (2-(2-methoxy-7-vinylquinoxalin-5-yl)-4-methyl-7,8-dihydro-[1,4]dioxino[2′,3′:3,4]benzo [1,2-d]thiazol-7-yl)methyl pyridin-3-ylcarbamate]
8.57	COc1cnc2c(-c3nc4c(C)cc5c(c4s3)OCC(COC(=O)Nc3cccnc3)O5)cc(CO)cc2n1 (stereo not shown) [Example 90, (2-(7-(hydroxymethyl)-2-methoxyquinoxalin-5-yl)-4-methyl-7,8-dihydro-[1,4]dioxino[2′,3′:3,4]benzo[1,2-d]thiazol-7-yl)methyl pyridin-3-ylcarbamate]
8.96	COc1cnc2c(-c3nc4c(C)cc5c(c4s3)OC[C@H](COC(=O)Nc3ccc(C)nc3)O5)cc(C#N)cc2n1 [Example 91, (R)-(2-(7-cyano-2-methoxyquinoxalin-5-yl)-4-methyl-7,8-dihydro-[1,4]dioxino[2′,3′:3,4]benzo[1,2-d]thiazol-7-yl)methyl (6-methylpyridin-3-yl)carbamate]
8.85	COc1cnc2c(-c3nc4c(C)cc5c(c4s3)OC[C@H](COC(=O)Nc3ccnc(C)c3)O5)cc(C#N)cc2n1 [Example 92, (R)-(2-(7-cyano-2-methoxyquinoxalin-5-yl)-4-methyl-7,8-dihydro-[1,4]dioxino[2′,3′:3,4]benzo[1,2-d]thiazol-7-yl)methyl (2-methylpyridin-4-yl)carbamate]
7.70	COc1cnc2c(-c3nc4c(C)cc5c(c4s3)OC[C@H](COC(=O)Nc3cccnc3)O5)cc(C#N)cc2n1 [Example 93, (R)-(2-(7-cyano-2-methoxyquinoxalin-5-yl)-4-methyl-7,8-dihydro-[1,4]dioxino[2′,3′:3,4]benzo[1,2-d]thiazol-7-yl)methyl pyridin-3-ylcarbamate]
7.54	COc1ccc(NC(=O)OC[C@H]2COc3c(cc(C)c4nc(-c5cc(C#N)cc6nc(OC)cnc56)sc34)O2)cn1 [Example 94, (R)-(2-(7-cyano-2-methoxyquinoxalin-5-yl)-4-methyl-7,8-dihydro-[1,4]dioxino[2′,3′:3,4]benzo[1,2-d]thiazol-7-yl)methyl (6-methoxypyridin-3-yl)carbamate]
6.85	COc1cnc2c(-c3nc4c(C)cc5c(c4s3)OCC(COC(=O)Nc3cccnc3)O5)cc(Cl)cc2n1 (stereo not shown) [Example 95, (2-(7-chloro-2-methoxyquinoxalin-5-yl)-4-methyl-7,8-dihydro-[1,4]dioxino[2′,3′:3,4]benzo[1,2-d]thiazol-7-yl)methyl pyridin-3-ylcarbamate]
7.92	COc1cnc2c(-c3nc4c(C)cc5c(c4s3)OCC(COC(=O)Nc3ccc(F)nc3)O5)cc(Cl)cc2n1 (stereo not shown) [Example 96, (2-(7-chloro-2-methoxyquinoxalin-5-yl)-4-methyl-7,8-dihydro-[1,4]dioxino[2′,3′:3,4]benzo[1,2-d]thiazol-7-yl)methyl (6-fluoropyridin-3-yl)carbamate]
7.19	COc1cnc2c(-c3nc4c(C)cc5c(c4s3)OCC(COC(=O)Nc3ccc(C)nc3)O5)cc(Cl)cc2n1 (stereo not shown) [Example 97, (2-(7-chloro-2-methoxyquinoxalin-5-yl)-4-methyl-7,8-dihydro-[1,4]dioxino[2′,3′:3,4]benzo[1,2-d]thiazol-7-yl)methyl (6-methylpyridin-3-yl)carbamate]
8.85	COc1ccc(NC(=O)OC[C@H]2COc3c(cc(C)c4nc(-c5cc(CO)cc6nc(OC)cnc56)sc34)O2)cn1 [Example 98, (R)-(2-(7-(hydroxymethyl)-2-methoxyquinoxalin-5-yl)-4-methyl-7,8-dihydro-[1,4]dioxino[2′,3′:3,4]benzo[1,2-d]thiazol-7-yl)methyl (6-methoxypyridin-3-yl)carbamate]
8.70	COc1cnc2c(-c3nc4c(C)cc5c(c4s3)OC[C@H](COC(=O)Nc3ccnc(C)c3)O5)cc(CO)cc2n1 [Example 99, (R)-(2-(7-(hydroxymethyl)-2-methoxyquinoxalin-5-yl)-4-methyl-7,8-dihydro-[1,4]dioxino[2′,3′:3,4]benzo[1,2-d]thiazol-7-yl)methyl (2-methylpyridin-4-yl)carbamate]
8.74	COc1cnc2c(-c3nc4c(C)cc5c(c4s3)OC[C@H](COC(=O)Nc3ccc(C)nc3)O5)cc(CO)cc2n1 [Example 100, (R)-(2-(7-(hydroxymethyl)-2-methoxyquinoxalin-5-yl)-4-methyl-7,8-dihydro-[1,4]dioxino[2′,3′:3,4]benzo[1,2-d]thiazol-7-yl)methyl (6-methylpyridin-3-yl)carbamate]
8.55	COc1cnc2c(-c3nc4c(C)cc5c(c4s3)OC[C@H](COC(=O)Nc3cccnc3)O5)cc(CO)cc2n1 [Example 101, (R)-(2-(7-(hydroxymethyl)-2-methoxyquinoxalin-5-yl)-4-methyl-7,8-dihydro-[1,4]dioxino[2′,3′:3,4]benzo[1,2-d]thiazol-7-yl)methyl pyridin-3-ylcarbamate]
8.64	COc1cnc2c(-c3nc4ccc5c(c4s3)OC[C@H](COC(=O)Nc3ccc(C)nc3)O5)cc(C)cc2n1 [Example 102, (R)-(2-(2-methoxy-7-methylquinoxalin-5-yl)-7,8-dihydro-[1,4]dioxino[2′,3′:3,4]benzo[1,2-d]thiazol-7-yl)methyl (6-methylpyridin-3-yl)carbamate]
8.55	COc1cnc2c(-c3nc4ccc5c(c4s3)OC[C@H](COC(=O)Nc3cnc(C)nc3)O5)cc(C)cc2n1 [Example 103, (R)-(2-(2-methoxy-7-methylquinoxalin-5-yl)-7,8-dihydro-[1,4]dioxino [2′,3′:3,4]benzo[1,2-d]thiazol-7-yl)methyl (2-methylpyrimidin-5-yl)carbamate]
8.72	COc1ccc(NC(=O)OC[C@H]2COc3c(ccc4nc(-c5cc(C)cc6nc(OC)cnc56)sc34)O2)cn1 [Example 104, (R)-(2-(2-methoxy-7-methylquinoxalin-5-yl)-7,8-dihydro-[1,4]dioxino[2′,3′:3,4]benzo[1,2-d]thiazol-7-yl)methyl (6-methoxypyridin-3-yl)carbamate]
8.80	COc1cnc2c(-c3nc4ccc5c(c4s3)OC[C@H](COC(=O)Nc3ccc(C#N)nc3)O5)cc(C)cc2n1 [Example 105, (R)-(2-(2-methoxy-7-methylquinoxalin-5-yl)-7,8-dihydro-[1,4]dioxino[2′,3′:3,4]benzo[1,2-d]thiazol-7-yl)methyl (6-cyanopyridin-3-yl)carbamate]
